Results on 24 molecules are retold here after patent US20250092017A1, “2-PIPERIDYL OR 2-PYRAZOLYL SUBSTITUTED PYRIMIDINE COMPOUND SERVING AS EGFR INHIBITOR” (SUZHOU PUHE BIOPHARMA CO., LTD., priority 2022, published 2025).

Like-named read-outs stand apart in the source and are kept apart here.

Format in all cases: cell-based
Assay [1] deals with T1, Ba/F3-FL-EGFR (Homo sapiens, UniProt P00533).
T1 construct: FL read as full length
Briefly: CellTiter-Glo proliferation, Ba/F3-FL-EGFR. As to conditions: 72 hours, read-out: Ba/F3-FL-EGFR IC50/nM. The protocol:
(§1) Promega CellTiter-Glo reagent was used to detect the effects of small molecule inhibitors on the proliferation of five Ba/F3 cell lines (Ba/F3-FL-EGFR, Ba/F3-FL-EGFR-L858R, Ba/F3-FL-EGFR-L858R-T790M-C797S, Ba/F3-TEL-EGFR-L858R-C797S and Ba/F3-FL-EGFR-del19-C797S).
(§2) The cell lines were cultured in an incubator at 37° C. and 5% CO2. Cells were passaged regularly and cells in the logarithmic phase were used for plating. 95 μL of cell suspension was added to each well of the cell plate, and culture medium without cells (containing 0.1% DMSO) was added to the Min control wells. Substance addition for compound detection cell plate: 5 μL of 20× compound working solution was added to the cell culture plate as shown in the table below. 50 μL of DMSO-cell culture medium mixture was added to the Max control, with the final DMSO concentration of 0.1%. 5 μL of DMSO-cell culture medium mixture was added to the Max control. The final DMSO concentration was 0.1%.
(§3) The compounds to be tested were added as per the table below
(§4) Cell viability was detected by CellTiter-Glo luminescence assay. Data analysis:
(§5) The cell proliferation inhibition rate (Inhibition Rate) data was processed using the following formula: […]
(§6) wherein: RLUDrug represents the relative luminescence unit of the cells with the addition of drug, RLUMin represents the luminescence unit of the culture medium, and RLUMax represents the relative luminescence unit of the cells with the addition of DMSO.
(§7) The inhibition rates corresponding to different concentrations of compounds were calculated in EXCEL, and then the inhibition rate curve was plotted using GraphPad Prism software and related parameters including the maximum and minimum inhibition rates of cells and IC50 values were calculated.

Assay [2] addresses Ba/F3-FL-EGFR-L858R (Homo sapiens, UniProt P00533, L858R, cells depend on it). The experiment in a line: CellTiter-Glo proliferation, Ba/F3-FL-EGFR-L858R. As to conditions: 72 hours, read-out: Ba/F3-FL-EGFR-L858R IC50/nM. The protocol:
as §1, §2, §3, §4, §5, §6, §7

Assay [3] deals with T2, Ba/F3-TEL-EGFR-L858R-C797S (Homo sapiens, UniProt P00533, C797S/L858R, cells depend on it).
T2 construct: fused on or other part: N-terminal TEL (ETV6) oligomerising part fused to the EGFR intracellular/kinase part; P41212 (Transcription factor ETV6)
T2 sequence (P00533 whole entry C797S/L858R, the tested form may be a part): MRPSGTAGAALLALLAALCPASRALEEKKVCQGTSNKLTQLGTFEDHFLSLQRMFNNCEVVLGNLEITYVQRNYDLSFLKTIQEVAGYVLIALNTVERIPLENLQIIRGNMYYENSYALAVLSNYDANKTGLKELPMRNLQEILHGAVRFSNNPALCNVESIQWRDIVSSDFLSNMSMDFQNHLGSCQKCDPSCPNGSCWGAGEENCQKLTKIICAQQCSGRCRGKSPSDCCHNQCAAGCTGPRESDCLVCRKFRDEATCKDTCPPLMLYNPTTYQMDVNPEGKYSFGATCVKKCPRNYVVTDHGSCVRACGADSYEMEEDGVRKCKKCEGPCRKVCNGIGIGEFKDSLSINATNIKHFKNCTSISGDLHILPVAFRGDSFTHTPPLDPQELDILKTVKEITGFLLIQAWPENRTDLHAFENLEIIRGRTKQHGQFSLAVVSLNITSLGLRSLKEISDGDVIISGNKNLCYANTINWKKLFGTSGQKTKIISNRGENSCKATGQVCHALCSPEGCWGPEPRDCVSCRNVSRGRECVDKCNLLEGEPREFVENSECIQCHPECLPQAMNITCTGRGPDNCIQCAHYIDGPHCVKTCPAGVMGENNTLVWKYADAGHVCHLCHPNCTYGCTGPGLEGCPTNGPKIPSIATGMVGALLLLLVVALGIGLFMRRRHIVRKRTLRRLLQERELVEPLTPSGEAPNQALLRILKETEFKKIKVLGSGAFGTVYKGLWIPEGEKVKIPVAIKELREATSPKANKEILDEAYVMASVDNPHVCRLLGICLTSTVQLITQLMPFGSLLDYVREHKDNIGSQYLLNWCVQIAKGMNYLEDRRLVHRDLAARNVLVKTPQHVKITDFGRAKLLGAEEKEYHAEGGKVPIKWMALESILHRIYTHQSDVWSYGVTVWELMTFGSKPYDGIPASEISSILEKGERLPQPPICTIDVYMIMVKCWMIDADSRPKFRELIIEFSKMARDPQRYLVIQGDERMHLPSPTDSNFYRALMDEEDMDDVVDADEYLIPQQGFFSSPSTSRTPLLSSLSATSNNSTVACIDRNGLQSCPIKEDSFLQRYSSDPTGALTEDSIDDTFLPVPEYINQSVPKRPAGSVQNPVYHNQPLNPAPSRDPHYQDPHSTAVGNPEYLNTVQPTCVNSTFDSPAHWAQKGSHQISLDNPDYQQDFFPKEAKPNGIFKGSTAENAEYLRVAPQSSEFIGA
The experiment in a line: CellTiter-Glo proliferation, Ba/F3-TEL-EGFR-L858R-C797S. As to conditions: 72 hours, read-out: Ba/F3-TEL-EGFR-L858R-C797S IC50/nM. The method, then: as §1, §2, §3, §4, §5, §6, §7

For assay [4], the target named is Ba/F3-FL-EGFR-L858R-T790M-C797S (Homo sapiens, UniProt P00533, T790M/C797S/L858R, cells depend on it). Briefly: CellTiter-Glo proliferation, Ba/F3-FL-EGFR-L858R-T790M-C797S. As to conditions: 72 hours, read-out: Ba/F3-FL-EGFR-L858R-T790M-C797S IC50/nM. The protocol: as §1, §2, §3, §4, §5, §6, §7
Ba/F3-FL-EGFR-L858R-T790M-C797S, sequence (P00533 whole entry T790M/C797S/L858R): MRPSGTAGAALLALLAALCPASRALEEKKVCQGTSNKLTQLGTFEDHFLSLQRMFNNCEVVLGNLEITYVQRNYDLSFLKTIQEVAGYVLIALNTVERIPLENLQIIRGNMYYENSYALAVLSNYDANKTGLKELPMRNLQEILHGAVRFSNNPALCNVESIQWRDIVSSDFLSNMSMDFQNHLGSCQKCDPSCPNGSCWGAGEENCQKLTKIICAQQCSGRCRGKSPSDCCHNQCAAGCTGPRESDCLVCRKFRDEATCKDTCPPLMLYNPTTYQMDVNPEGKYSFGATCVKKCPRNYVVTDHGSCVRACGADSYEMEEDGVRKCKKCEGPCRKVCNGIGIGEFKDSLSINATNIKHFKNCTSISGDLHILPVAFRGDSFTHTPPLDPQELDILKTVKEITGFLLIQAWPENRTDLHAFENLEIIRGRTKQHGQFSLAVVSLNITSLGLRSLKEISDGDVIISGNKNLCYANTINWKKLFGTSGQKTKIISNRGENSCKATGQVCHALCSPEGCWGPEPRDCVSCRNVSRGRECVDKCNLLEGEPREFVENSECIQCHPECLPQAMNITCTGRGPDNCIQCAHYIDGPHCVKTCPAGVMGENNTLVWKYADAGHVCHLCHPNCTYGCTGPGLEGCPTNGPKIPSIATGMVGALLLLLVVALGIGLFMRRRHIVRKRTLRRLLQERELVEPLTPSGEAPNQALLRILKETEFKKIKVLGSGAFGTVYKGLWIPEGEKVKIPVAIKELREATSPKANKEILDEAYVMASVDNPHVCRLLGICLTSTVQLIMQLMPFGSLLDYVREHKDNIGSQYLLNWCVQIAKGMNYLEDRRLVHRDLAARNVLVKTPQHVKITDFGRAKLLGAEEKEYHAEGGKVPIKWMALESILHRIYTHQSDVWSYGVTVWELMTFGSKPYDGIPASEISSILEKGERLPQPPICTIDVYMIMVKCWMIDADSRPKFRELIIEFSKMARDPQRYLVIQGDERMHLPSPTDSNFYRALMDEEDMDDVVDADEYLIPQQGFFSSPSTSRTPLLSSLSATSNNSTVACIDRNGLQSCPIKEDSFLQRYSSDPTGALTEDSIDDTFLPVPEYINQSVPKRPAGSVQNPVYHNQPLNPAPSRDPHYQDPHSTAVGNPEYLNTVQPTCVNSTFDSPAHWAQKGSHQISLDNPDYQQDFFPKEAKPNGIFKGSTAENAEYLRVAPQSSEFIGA
Assay [5] has as its system Ba/F3-FL-EGFR-del19-C797S. Briefly: CellTiter-Glo proliferation, Ba/F3-FL-EGFR-del19-C797S. As to conditions: proliferation, 72 hours, CellTiter-Glo, read-out: Ba/F3-FL-EGFR-del19-C797S IC50/nM. The protocol:
as §1, §2, §3, §4, §5, §6, §7

Ba/F3-FL-EGFR-L858R, sequence (P00533 whole entry L858R): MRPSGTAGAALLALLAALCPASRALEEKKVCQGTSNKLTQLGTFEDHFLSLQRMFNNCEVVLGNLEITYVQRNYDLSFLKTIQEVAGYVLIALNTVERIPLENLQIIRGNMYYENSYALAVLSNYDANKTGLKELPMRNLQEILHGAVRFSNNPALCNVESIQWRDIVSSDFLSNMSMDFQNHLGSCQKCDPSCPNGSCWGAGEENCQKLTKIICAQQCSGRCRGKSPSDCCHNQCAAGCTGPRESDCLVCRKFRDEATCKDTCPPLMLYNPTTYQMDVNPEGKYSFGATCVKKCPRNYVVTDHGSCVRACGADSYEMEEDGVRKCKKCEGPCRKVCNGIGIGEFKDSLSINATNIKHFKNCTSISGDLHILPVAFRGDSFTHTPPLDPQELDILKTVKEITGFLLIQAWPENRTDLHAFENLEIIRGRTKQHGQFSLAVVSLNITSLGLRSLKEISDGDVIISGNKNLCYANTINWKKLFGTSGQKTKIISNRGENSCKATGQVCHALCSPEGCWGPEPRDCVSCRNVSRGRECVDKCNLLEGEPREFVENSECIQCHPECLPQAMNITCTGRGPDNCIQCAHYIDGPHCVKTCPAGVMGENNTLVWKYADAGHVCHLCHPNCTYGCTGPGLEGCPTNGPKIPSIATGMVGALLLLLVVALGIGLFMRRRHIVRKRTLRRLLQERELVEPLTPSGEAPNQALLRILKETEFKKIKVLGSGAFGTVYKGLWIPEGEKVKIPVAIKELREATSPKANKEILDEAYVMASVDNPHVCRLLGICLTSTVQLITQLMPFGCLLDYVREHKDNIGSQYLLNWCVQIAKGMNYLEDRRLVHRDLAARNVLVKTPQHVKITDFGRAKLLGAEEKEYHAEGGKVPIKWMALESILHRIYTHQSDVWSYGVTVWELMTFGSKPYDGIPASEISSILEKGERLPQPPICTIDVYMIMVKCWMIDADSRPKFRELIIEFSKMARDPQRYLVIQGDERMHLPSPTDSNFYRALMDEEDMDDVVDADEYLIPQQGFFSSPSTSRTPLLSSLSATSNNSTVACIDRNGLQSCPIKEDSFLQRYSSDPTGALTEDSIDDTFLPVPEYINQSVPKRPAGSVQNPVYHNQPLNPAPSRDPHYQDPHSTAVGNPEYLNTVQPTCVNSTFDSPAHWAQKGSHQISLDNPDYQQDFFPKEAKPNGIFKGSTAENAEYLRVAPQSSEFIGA
T1 sequence (P00533 whole entry, change not shown): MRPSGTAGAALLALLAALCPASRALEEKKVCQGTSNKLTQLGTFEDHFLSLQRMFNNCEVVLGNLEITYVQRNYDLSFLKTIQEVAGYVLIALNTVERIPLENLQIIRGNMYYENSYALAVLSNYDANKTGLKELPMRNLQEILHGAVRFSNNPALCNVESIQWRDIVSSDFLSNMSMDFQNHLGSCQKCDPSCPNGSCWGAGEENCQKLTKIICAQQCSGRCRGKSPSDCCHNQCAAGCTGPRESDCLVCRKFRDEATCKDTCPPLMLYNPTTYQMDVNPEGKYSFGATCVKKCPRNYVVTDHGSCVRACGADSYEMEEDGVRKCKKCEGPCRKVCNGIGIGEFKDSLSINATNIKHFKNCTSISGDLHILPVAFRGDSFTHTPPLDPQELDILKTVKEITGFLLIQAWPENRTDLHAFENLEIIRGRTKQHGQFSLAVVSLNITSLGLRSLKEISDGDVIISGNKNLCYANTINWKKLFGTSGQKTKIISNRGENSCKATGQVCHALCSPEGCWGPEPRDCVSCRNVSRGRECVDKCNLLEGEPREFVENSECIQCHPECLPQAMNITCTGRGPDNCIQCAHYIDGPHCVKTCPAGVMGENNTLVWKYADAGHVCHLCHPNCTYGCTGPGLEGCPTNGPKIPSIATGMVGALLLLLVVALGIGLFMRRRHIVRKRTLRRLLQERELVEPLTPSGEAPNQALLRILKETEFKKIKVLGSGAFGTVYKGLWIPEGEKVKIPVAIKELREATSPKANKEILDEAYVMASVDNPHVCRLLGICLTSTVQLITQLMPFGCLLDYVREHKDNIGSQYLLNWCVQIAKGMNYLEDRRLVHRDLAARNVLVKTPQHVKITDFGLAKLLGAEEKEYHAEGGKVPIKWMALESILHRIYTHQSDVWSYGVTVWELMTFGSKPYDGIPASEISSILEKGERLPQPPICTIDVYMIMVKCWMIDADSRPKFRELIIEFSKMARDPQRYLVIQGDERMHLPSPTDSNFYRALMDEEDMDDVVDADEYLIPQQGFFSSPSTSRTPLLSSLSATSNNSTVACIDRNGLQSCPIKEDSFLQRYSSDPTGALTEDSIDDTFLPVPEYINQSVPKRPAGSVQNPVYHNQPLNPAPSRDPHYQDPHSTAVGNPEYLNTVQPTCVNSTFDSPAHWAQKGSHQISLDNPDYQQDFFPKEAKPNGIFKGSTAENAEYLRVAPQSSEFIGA

Consider `CC(C)c1ccc(N2CC(CS(C)(=O)=O)C2)c2cnc(Nc3ccnc(-c4cnn(S(=O)(=O)CC5CC5)c4)n3)cc12` [Compound H14], for which the GI50 in assay [1] was 721 nM; in assay [2], 71 nM; in assay [3], 28 nM; in assay [4], 136 nM. For the same molecule, in assay [5] (72 h), the IC50 turned out to be 34 nM.

On to `COCCS(=O)(=O)n1cc(-c2nccc(Nc3cc4c(C(C)C)ccc(N5CC(CS(C)(=O)=O)C5)c4cn3)n2)cn1` [Compound H15], for which the GI50 in assay [1] came out at 148 nM; in assay [2], 5.7 nM; in assay [3], 4.3 nM; in assay [4] it was 8.6 nM. In addition, the IC50 in assay [5] stood at 6.6 nM.

Take `CC(C)c1ccc(N2CC(CS(C)(=O)=O)C2)c2cnc(Nc3ccnc(-c4cnn(S(=O)(=O)c5ccccn5)c4)n3)cc12` [Compound H16]: the GI50 amounted to 1360 nM in assay [1], 235 nM in assay [2], 122 nM in assay [3] and 652 nM in assay [4]. The IC50 in assay [5] (72 h) came out at 264 nM.

On to `CC(C)c1ccc(N2CC(CS(C)(=O)=O)C2)c2cnc(Nc3ccnc(-c4cnn(S(=O)(=O)C5COC5)c4)n3)cc12` [Compound H17], for which the GI50 in assay [1] was 858 nM; in assay [2] it was 56 nM; in assay [3], 33 nM; in assay [4], 127 nM. In addition, the IC50 in assay [5] (72 h) was found to be 58 nM.

Turning to `COCCS(=O)(=O)n1cc(-c2nccc(Nc3cc4c(C(C)C)ccc(N5CC(CS(C)(=O)=O)C5)c4cn3)n2)cn1` [Compound H20], the GI50 in assay [1] was 2110 nM; in assay [2] it was 43 nM; in assay [3], 22 nM; in assay [4], 188 nM. Further, in assay [5], the IC50 came out at 53 nM.

Turning to `COCCS(=O)(=O)n1cc(-c2nccc(Nc3cc4c(C(C)C)ccc(N5C[C@H](CS(C)(=O)=O)[C@H]5C)c4cn3)n2)cn1` [Compound H21], the GI50 is 76 nM in assay [1], 2.9 nM in assay [2], 1.8 nM in assay [3] and 4.4 nM in assay [4]. Also, in assay [5] (72 h), the IC50 turned out to be 4.3 nM.

Turning to `CCOCCS(=O)(=O)n1cc(-c2nccc(Nc3cc4c(C(C)C)ccc(N5C[C@H](CS(C)(=O)=O)[C@H]5C)c4cn3)n2)cn1` [Compound H22], the GI50 in assay [1] was 229 nM; in assay [2], 17 nM; in assay [3], 13 nM; in assay [4] it was 14 nM. Moreover, the IC50 in assay [5] (72 h) worked out at 14 nM.

`CC(C)c1ccc(N2CC(CS(C)(=O)=O)C2)c2cnc(Nc3ccnc(-c4cnn(S(=O)(=O)C5CCOC5)c4)n3)cc12` (stereo not drawn) [Compound H24]: the GI50 came out at 458 nM in assay [1], 42 nM in assay [2], 12 nM in assay [3] and 94 nM in assay [4]. Also, the IC50 in assay [5] (72 h) turned out to be 20 nM.

Take `CC(C)c1ccc(N2CC(N(C)S(C)(=O)=O)C2)c2cnc(Nc3ccnc(-c4cnn(S(=O)(=O)C5CC5)c4)n3)cc12` [Compound H25]: the GI50 in assay [1] worked out at 208 nM; in assay [2], 14 nM; in assay [3] it was 9.6 nM; in assay [4], 26 nM. In assay [5] (72 h), the IC50 was 11 nM.

Consider `CC(C)c1ccc(N2CC(CS(C)(=O)=O)C2)c2cnc(Nc3ccnc(-c4cnn(CC#N)c4)n3)cc12` [Compound H26], for which the GI50 in assay [1] was determined as 1420 nM; in assay [2], 74 nM; in assay [3] it was 56 nM; in assay [4], 336 nM. In addition, the IC50 in assay [5] (72 h) stood at 128 nM.

Turning to `CCn1cc(-c2nccc(Nc3cc4c(C(C)C)ccc(N5CC(CS(C)(=O)=O)C5)c4cn3)n2)cn1` [Compound H27], the GI50 was over 10000 nM in assay [1], 49 nM in assay [2], 21 nM in assay [3] and 322 nM in assay [4]. Further, the IC50 in assay [5] (72 h) was found to be 53 nM.

In the case of `CC(C)c1ccc(N2C[C@H](CS(C)(=O)=O)[C@H]2C)c2cnc(Nc3ccnc(-c4cnn(S(=O)(=O)N(C)C)c4)n3)cc12` [Compound H28], the GI50 in assay [1] came to 595 nM; in assay [2], 50 nM; in assay [3] it was 23 nM; in assay [4], 68 nM. Moreover, the IC50 in assay [5] (72 h) was found to be 48 nM.

With `CC(C)c1ccc(N2CC(CS(C)(=O)=O)C2)c2cnc(Nc3ccnc(-c4cnn(C)c4)n3)cc12` [Compound H29], the GI50 in assay [1] was found to be 739 nM; in assay [2] it was 91 nM; in assay [3] it was 34 nM; in assay [4], 235 nM. Moreover, the IC50 in assay [5] (72 h) worked out at 59 nM.

Consider `CC(C)c1ccc(N2C[C@H](CS(C)(=O)=O)[C@H]2C)c2cnc(Nc3ccnc(-c4cnn(S(=O)(=O)CCOC5CC5)c4)n3)cc12` [Compound H31], for which the GI50 turned out to be 503 nM in assay [1], 50 nM in assay [2], 55 nM in assay [3] and 64 nM in assay [4]. For the same molecule, the IC50 in assay [5] (72 h) was 39 nM.

As for `CC(C)OCCS(=O)(=O)n1cc(-c2nccc(Nc3cc4c(C(C)C)ccc(N5C[C@H](CS(C)(=O)=O)[C@H]5C)c4cn3)n2)cn1` [Compound H32], the GI50 in assay [1] came to 3290 nM; in assay [2], 510 nM; in assay [3] it was 226 nM; in assay [4], 397 nM. Further, in assay [5] (72 h), the IC50 worked out at 340 nM.

Regarding `CCCS(=O)(=O)N(C)[C@H]1CN(c2ccc(C(C)C)c3cc(Nc4ccnc(-c5cnn(S(=O)(=O)C6CC6)c5)n4)ncc23)[C@@H]1C` [Compound H33], the GI50 in assay [1] turned out to be 202 nM; in assay [2] it was 14 nM; in assay [3], 5.9 nM; in assay [4] it was 13 nM. Moreover, the IC50 in assay [5] (72 h) stood at 7.1 nM.

Regarding `CCCS(=O)(=O)C[C@H]1CN(c2ccc(C(C)C)c3cc(Nc4ccnc(-c5cnn(S(=O)(=O)C6CC6)c5)n4)ncc23)[C@@H]1C` [Compound H34], the GI50 worked out at 656 nM in assay [1], 65 nM in assay [2], 28 nM in assay [3] and 73 nM in assay [4]. Besides, in assay [5] (72 h), the IC50 was found to be 37 nM.

`CC(C)c1ccc(N2CC(NS(=O)(=O)N(C)C)C2)c2cnc(Nc3ccnc(N4CCC(O)C(F)C4)n3)cc12` (stereo not drawn) [Compound P27]: the GI50 in assay [1] was 2200 nM; in assay [2] it was 169 nM; in assay [3], 74 nM; in assay [4] it was 64 nM. Also, the IC50 in assay [5] (72 h) was found to be 226 nM.

In the case of `CCN(C1CN(c2ccc(C(C)C)c3cc(Nc4ccnc(N5CCC(OC)C(F)C5)n4)ncc23)C1)S(C)(=O)=O` (stereo not drawn) [Compound P31], the GI50 was 1460 nM in assay [1], 86 nM in assay [2], 19 nM in assay [3] and 18 nM in assay [4]. In assay [5] (72 h), the IC50 is 295 nM.

On to `CCCS(=O)(=O)N[C@H]1CN(c2ccc(C(C)C)c3cc(Nc4ccnc(N5CCC(OC)C(F)C5)n4)ncc23)[C@@H]1C` (stereo partly drawn) [Compound P32], for which the GI50 in assay [1] was found to be 565 nM; in assay [2], 22 nM; in assay [3], 16 nM; in assay [4], 8.9 nM. Besides, the IC50 in assay [5] (72 h) was determined as 123 nM.

As to `CC(C)c1ccc(N2CC(NS(=O)(=O)c3ccoc3)C2)c2cnc(Nc3ccnc(N4CCC(O)C(F)C4)n3)cc12` (stereo not drawn) [Compound P33], the GI50 in assay [1] is 1500 nM; in assay [2], 218 nM; in assay [3] it was 115 nM; in assay [4], 91 nM. Further, the IC50 in assay [5] (72 h) stood at 351 nM.

As to `CC(C)c1ccc(N2CC(N3CCCS3(=O)=O)C2)c2cnc(Nc3ccnc(N4CCC(O)C(F)C4)n3)cc12` (stereo not drawn) [Compound P34], the GI50 in assay [1] worked out at 903 nM; in assay [2], 206 nM; in assay [3] it was 83 nM; in assay [4], 78 nM. Also, the IC50 in assay [5] (72 h) was determined as 234 nM.

Turning to `CC(=O)NC1CN(c2ccc(C(C)C)c3cc(Nc4ccnc(N5CCC(O)C(F)C5)n4)ncc23)C1` (stereo not drawn) [Compound P35], the GI50 in assay [1] stood at 8760 nM; in assay [2] it was 2520 nM; in assay [3], 1690 nM; in assay [4], 1660 nM. Moreover, in assay [5] (72 h), the IC50 is 3120 nM.

As for `COC1CCN(c2nccc(Nc3cc4c(C(C)C)ccc(N5CC(N(C)S(C)(=O)=O)C5)c4cn3)n2)CC1F` (stereo not drawn) [Compound P36], the GI50 in assay [1] worked out at 1090 nM; in assay [2] it was 33 nM; in assay [3] it was 8.3 nM; in assay [4] it was 14 nM. For the same molecule, the IC50 in assay [5] (72 h) is 159 nM.
